Results as given in patent US20100022582A1, “Tetrahydroisoquinoline Compound and Medicinal Use Thereof” (priority 2005, published 2010).
Each block holds one compound with its values, some of them ahead of it.

Tests used:
[1] = Oral administration experiment (plasma concentration); assay type: in vivo; details: (10 mg)/kg orally, male SD rats, plasma 0.5-6 hr
Experimental: The test compound (10 mg)/kg suspended in 5% gum arabic solution was forcedly administered orally to male SD rats (body weight 200-250 g). At 0.5, 1, 2, 4, 6 hr after administration, blood was drawn without anesthesia, and heparin plasma was separated by a conventional method. The concentration of the test compound in the plasma was measured by high performance liquid chromatography.

[2] = Stable radical elimination action (DPPH); details: 0.1 mM DPPH
Experimental: 0.1 mM Diphenyl-2-picrylhydrazyl (DPPH) acetonitrile (CH3CN) solution (3 mL) was placed in a glass test tube, and a DMSO solution of a test compound was added at a 1% dose (30 μL). As a control, 0.1 mM DPPH CH3CN solution (3 mL) containing DMSO (30 μL) was used and for a blank test, CH3CN (3 mL) containing DMSO (30 μL) was used. After standing the solutions at room temperature for 60 min (20 min for Examples 69, 72 and 73), the absorbance at 517 nm was measured by a spectrophotometer. A stable radical inhibitory rate when control was 100% was calculated from [(absorbance of test substance−absorbance of blank test)÷(absorbance of control−absorbance of blank test)].

[3] = test system: brain homogenate lipid peroxidation; assay: Lipid peroxidation-inhibitory action (brain homogenate, MDA); assay type: biochemical, SD rat; details: rat brain homogenate, 37° C. for 30 min
Experimental: The brain was removed from male SD rat, and a 50 mM phosphate buffer (pH 7.4, 5-fold amount of brain weight) was added. The mixture was homogenized under ice-cooling for 30 sec, and centrifuged at 4° C., 3200 rpm for 10 min. The supernatant was diluted 5-fold with 50 mM phosphate buffer to give a brain homogenate. A test compound (10 μL) was placed in a glass test tube, the brain homogenate (1 mL) was added, and the mixture was incubated at 37° C. for 30 min. 20% Trichloroacetic acid (1 mL) was added to quench the reaction. The reaction mixture was centrifuged at room temperature, 4000 rpm for 10 min. Thiobarbituric acid (0.2 mL) was added to the supernatant (1 mL) and the mixture was heated at 95° C. for 15 min. The absorbance at 532 nm was measured, and lipid peroxide was quantified as malondialdehyde (MDA). The MDA level was compared between the control and the test compound-added sample, and the lipid peroxidation inhibitory rate was calculated.

[4] = test system: THP-1 cell-derived macrophage; assay: Cholesterol ester accumulation-inhibitory activity (THP-1 cell-derived macrophage foam cell formation); assay type: cell-based; details: THP-1 macrophage, acetyl LDL, 3 days
Experimental: THP-1 cells (DAINIPPON PHARMACEUTICAL CO., LTD.) were subcultured in RPMI-1640 medium containing 10% fetal calf serum (FBS), and cells at 6-13th passage after purchase were used. The cells were suspended in FBS-containing RPMI-1640 medium to give a suspension having a concentration of 4×10^5 cells/mL. The cell suspension was seeded on 12-well microplate by 1 mL, and treated with phorbol 12-myristate 13-acetate (PMA, 200 nM) as a differentiation inducer into macrophage. Then, acetyl LDL (400 μg/mL) separately prepared from LDL derived from plasma of a rabbit with genetic hyperlipidemia (KHC rabbit, Japan Laboratory Animals Inc.) was added. A test compound further dissolved in dimethyl sulfoxide (DMSO) and diluted with FBS-containing RPMI-1640 medium and a control solvent were applied. After cultivation in a carbon dioxide incubator for 3 days, the cells were washed with phosphate-buffered saline (pH 7.0), and the lipid was extracted with hexane-isopropanol (3:2). In addition, the cells were lysed with 1N-NaOH, and the protein content was measured. Free cholesterol and cholesterol ester in the lipid extraction sample were measured according to the method of Kunitomo et al. [Japan. J. Pharmacol., 34, 153-158 (1984)]. Cholesterol esters in the control cells and the cells treated with the test compound were compared, and the cholesterol ester accumulation inhibitory rate of the test compound was calculated.

liver ACAT = assay: ACAT inhibitory activity (rabbit liver microsome, cholesteryl oleate production); assay type: biochemical, Japanese white rabbits; details: 37° C. for 20 min
Experimental: Male Japanese white rabbits (body weight 2-2.5 kg) were bred on 100 g of a high cholesterol feed (feed added with cholesterol 1%, CLEA Japan, Inc.) daily for 4 weeks and sacrificed by exsanguination under anesthesia. The liver was removed, homogenated and centrifuged at 10,000 rpm and 4° C. for 15 min. The obtained supernatant was further centrifuged at 41,000 rpm and 4° C. for 60 min to give a microsome fraction. To a 0.15 M phosphate buffer were added the microsome suspension as an enzyme specimen, dimethyl sulfoxide (DMSO) or a solution (3 μL) of a test compound in DMSO and [1-14C]-oleoyl-CoA to be a reaction substrate to the total amount of 300 μL. After incubation at 37° C. for 20 min, a mixed solution of chloroform-methanol was added to quench the reaction. Water was added thereto and mixed, and the chloroform layer was separated. The solvent was evaporated to dryness and the residue was redissolved in n-hexane. The resulting solution was subjected to thin layer chromatography using a silica gel plate. The spot of cholesteryl oleate on the silica gel plate was scraped and quantified on a liquid scintillation counter. The ACAT inhibitory activity of the test compound is shown in cholesteryl oleate production inhibitory rate (%) [level of inhibition of cholesteryl oleate production as compared to the control].

maximum blood concentration [1]: 0.44 µg/mL
Structure (SMILES): Cc1cc(NC(=O)[C@@H]2Cc3ccc(CNCCF)cc3CN2C(=O)C(C)(C)C)c(C)c(C)c1O.Cl [Example 140, 2-(2,2-dimethylpropionyl)-7-(2-fluoroethylamino)methyl-N-(4-hydroxy-2,3,5-trimethylphenyl)-1,2,3,4-tetrahydroisoquinoline-(3S)-carboxamide hydrochloride]

maximum blood concentration [1]: 0.46 µg/mL
Structure (SMILES): COC1CN(Cc2ccc3c(c2)CN(C(=O)C(C)(C)C)[C@H](C(=O)Nc2cc(C)c(O)c(C)c2C)C3)C1.Cl [Example 143, 2-(2,2-dimethylpropionyl)-N-(4-hydroxy-2,3,5-trimethylphenyl)-7-(3-methoxyazetidin-1-yl)methyl-1,2,3,4-tetrahydroisoquinoline-(3S)-carboxamide hydrochloride]
inhibitory rate (%) (10^−4M), stable radical ([2]; room temperature for 60 min): 61.0%
inhibitory rate (%) (10^−4M), lipid peroxidation [3]: 64.1%
cholesteryl ester accumulation inhibitory rate (%) (concentration: 10^−6 M) [4]: 60.9%

Structure (SMILES): CC(C)(C)CN1Cc2ccccc2C[C@H]1C(=O)Nc1cc(C(C)(C)C)c(O)c(C(C)(C)C)c1 [Example 47, N-(3,5-di-tert-butyl-4-hydroxyphenyl)-2-(2,2-dimethylpropyl)-1,2,3,4-tetrahydroisoquinoline-(3S)-carboxamide]
inhibitory rate (%) (10^−4M), stable radical ([2]; room temperature for 60 min): 66.1%
inhibitory rate (%) (10^−4M), lipid peroxidation [3]: 100.1%

maximum blood concentration [1]: 0.42 µg/mL
Structure (SMILES): CCCN(C)Cc1ccc2c(c1)CN(C(=O)C(C)C)[C@H](C(=O)Nc1cc(C)c(O)c(C)c1C)C2 [Example 138, N-(4-hydroxy-2,3,5-trimethylphenyl)-2-isobutyryl-7-(N-methylpropylamino)methyl-1,2,3,4-tetrahydroisoquinoline-(3S)-carboxamide]

Structure (SMILES): Cc1cc(NC(=O)[C@@H]2Cc3ccccc3CN2C(=O)C(C)C)c(C)c(C)c1O [Example 50, N-(4-hydroxy-2,3,5-trimethylphenyl)-2-isobutyryl-1,2,3,4-tetrahydroisoquinoline-(3S)-carboxamide]
inhibitory rate (%) (10^−4M), lipid peroxidation [3]: 85.7%

maximum blood concentration [1]: 0.49 µg/mL
Structure (SMILES): Cc1cc(NC(=O)[C@@H]2Cc3ccc(CN4CC(F)C4)cc3CN2C(=O)C(C)(C)C)c(C)c(C)c1O.Cl [Example 141, 2-(2,2-dimethylpropionyl)-7-(3-fluoroazetidin-1-yl)methyl-N-(4-hydroxy-2,3,5-trimethylphenyl)-1,2,3,4-tetrahydroisoquinoline-(3S)-carboxamide hydrochloride]
inhibitory rate (%) (10^−4M), stable radical ([2]; room temperature for 60 min): 63.7%
inhibitory rate (%) (10^−4M), lipid peroxidation [3]: 94.8%
cholesteryl ester accumulation inhibitory rate (%) (concentration: 10^−6 M) [4]: 88.0%

Structure (SMILES): Cc1cc(NC(=O)[C@@H]2Cc3ccccc3CN2CC(C)(C)C)c(C)c(C)c1O.Cl [Example 48, 2-(2,2-dimethylpropyl)-N-(4-hydroxy-2,3,5-trimethylphenyl)-1,2,3,4-tetrahydroisoquinoline-(3S)-carboxamide hydrochloride]
inhibitory rate (%) (10^−4M), stable radical ([2]; room temperature for 60 min): 91.7%
inhibitory rate (%) (10^−4M), lipid peroxidation [3]: 100.5%

Structure (SMILES): Cc1cc(NC(=O)[C@@H]2Cc3ccc(CN(C)CCF)cc3CN2C(=O)C(C)(C)C)c(C)c(C)c1O [Example 139, 2-(2,2-dimethylpropionyl)-7-(2-fluoro-N-methylethylamino)methyl-N-(4-hydroxy-2,3,5-trimethylphenyl)-1,2,3,4-tetrahydroisoquinoline-(3S)-carboxamide]
inhibitory rate (%) (10^−4M), lipid peroxidation [3]: 99.7%
cholesteryl ester accumulation inhibitory rate (%) (concentration: 10^−6 M) [4]: 84.6%

maximum blood concentration [1]: 0.60 µg/mL
Structure (SMILES): Cc1cc(NC(=O)[C@@H]2Cc3ccc(N4CCN(C)CC4)cc3CN2C(=O)C(C)(C)C)c(C)c(C)c1O [Example 122, 2-(2,2-dimethylpropionyl)-N-(4-hydroxy-2,3,5-trimethylphenyl)-7-(4-methylpiperazin-1-yl)-1,2,3,4-tetrahydroisoquinoline-(3S)-carboxamide]
inhibitory rate (%) (10^−4M), stable radical ([2]; room temperature for 60 min): 72.3%
inhibitory rate (%) (10^−4M), lipid peroxidation [3]: 75.9%

maximum blood concentration [1]: 0.48 µg/mL
Structure (SMILES): CCN(CC)Cc1ccc2c(c1)CN(C(=O)C(C)(C)C)[C@H](C(=O)Nc1cc(C)c(O)c(C)c1C)C2 [Example 133, 7-diethylaminomethyl-2-(2,2-dimethylpropionyl)-N-(4-hydroxy-2,3,5-trimethylphenyl)-1,2,3,4-tetrahydroisoquinoline-(3S)-carboxamide]
inhibitory rate (%) (10^−4M), stable radical ([2]; room temperature for 60 min): 65.5%

Structure (SMILES): CCCN1Cc2cc(N(C)C)ccc2C[C@H]1C(=O)Nc1cc(C)c(O)c(C)c1C [Example 84, 7-dimethylamino-N-(4-hydroxy-2,3,5-trimethylphenyl)-2-propyl-1,2,3,4-tetrahydroisoquinoline-(3S)-carboxamide]
inhibitory rate (%) (10^−4M), stable radical ([2]; room temperature for 60 min): 71.9%
inhibitory rate (%) (10^−4M), lipid peroxidation [3]: 100.9%

Structure (SMILES): CCCCCN1Cc2ccccc2C[C@H]1C(=O)Nc1cc(C(C)(C)C)c(O)c(C(C)(C)C)c1 [Example 51, N-(3,5-di-tert-butyl-4-hydroxyphenyl)-2-pentyl-1,2,3,4-tetrahydroisoquinoline-(3S)-carboxamide]
inhibitory rate (%) (10^−4M), stable radical ([2]; room temperature for 60 min): 63.8%
inhibitory rate (%) (10^−4M), lipid peroxidation [3]: 100.3%

Structure (SMILES): CCCCCCCC(C)(C)CN1Cc2cc(OC(C)(C)C(=O)O)ccc2C[C@H]1c1cc(C)c(O)c(C)c1C [Example 132, 2-{[2-(2,2-dimethylnonyl)-(3S)-(4-hydroxy-2,3,5-trimethylphenyl)-1,2,3,4-tetrahydroisoquinolin-7-yl]oxy}-2-methylpropionic acid]
inhibitory rate (%) (10^−4M), stable radical ([2]; room temperature for 60 min): 80.7%
inhibitory rate (%) (10^−4M), lipid peroxidation [3]: 105.6%

Structure (SMILES): CCCCC(=O)N1Cc2ccccc2C[C@H]1C(=O)Nc1cc(C(C)(C)C)c(O)c(C(C)(C)C)c1 [Example 13, N-(3,5-di-tert-butyl-4-hydroxyphenyl)-2-pentanoyl-1,2,3,4-tetrahydroisoquinoline-(3S)-carboxamide]
inhibitory rate (%) (10^−4M), lipid peroxidation [3]: 100.1%

Structure (SMILES): CCCN(C)Cc1ccc2c(c1)CN(C(=O)C(C)(C)C)[C@H](C(=O)Nc1cc(C)c(O)c(C)c1C)C2 [Example 136, 2-(2,2-dimethylpropionyl)-N-(4-hydroxy-2,3,5-trimethylphenyl)-7-(N-methylpropylamino)methyl-1,2,3,4-tetrahydroisoquinoline-(3S)-carboxamide]
inhibitory rate (%) (10^−4M), stable radical ([2]; room temperature for 60 min): 71.3%
inhibitory rate (%) (10^−4M), lipid peroxidation [3]: 89.6%
cholesteryl ester accumulation inhibitory rate (%) (concentration: 10^−6 M) [4]: 66.4%

maximum blood concentration [1]: 0.91 µg/mL
Structure (SMILES): Cc1cc(NC(=O)[C@@H]2Cc3ccc(N(C)C)cc3CN2C(=O)C(C)C)c(C)c(C)c1O.Cl [Example 72, 7-dimethylamino-N-(4-hydroxy-2,3,5-trimethylphenyl)-2-isobutyryl-1,2,3,4-tetrahydroisoquinoline-(3S)-carboxamide hydrochloride]
inhibitory rate (%) (10^−4M), stable radical ([2]; room temperature 20 min (Examples 69, 72 and 73)): 97.0%
cholesteryl ester accumulation inhibitory rate (%) (concentration: 10^−6 M) [4]: 80.5%
liver ACAT inhibition rate (%) (concentration: 10^−6 M) (liver ACAT): 91.4%
